Data on nine compounds can be found in patent US20200055897A1, “MODIFIED PEPTOIDS” (Technion Research & Development Foundation Limited, priority 2017, published 2020).

Converted amounts (≈) assume the structure as drawn. “And” between values parts separate entries of the source, which are not always exact repeats. Equal values may be shown once. Read-outs that look alike come from different tables or passages of the source. Starred links: 1 amine or outer side, 2 acyl side, 3 side chain; linkers in the order of their positions; H or OH if unused. Non-standard residues stand in square brackets, D forms with d. Residues, ends and D or L forms follow the SMILES beside them. *: point of attachment. N(CH2CH2O-4'-Tpy)Gly = O=C(O)CNCCOc1cc(-c2ccccn2)nc(-c2ccccn2)c1; Acetyl(2-(piperazin-1-yl)) = O=C(CN1CCNCC1)*; X2 = O=C(CN(Cc1ccc2cccc(O)c2n1)[*:1])[*:2]; Gly(Nα-NHCO2Et) = CCOC(=O)NNCC(=O)O; Nrpe = C[C@@H](NCC(=O)O)c1ccccc1; X4 = O=C(CN1CCCN([*:1])CC1)[*:2]; Nspe = C[C@H](NCC(=O)O)c1ccccc1; X1 = O=C(CN1CCN([*:1])CC1)[*:2]; X5 = NC(=O)CN1CCN(*)CC1; X3 = O=C(CN1CCCNCC1)*

Series [1] can be described thus: General method for water solubility test (gradual addition of water to 1 mg peptoid until clear). The series is classed as physicochemical. How it is done:
1 mg peptoid was placed in an Eppendorf container and water was added gradually (e.g., […] per addition) until a clear solution was obtained. The solubility test was repeated three times and average values are presented. The limit of the test was typically 2.0×10^2 mg/liter (i.e., 1 mg per 5 ml).
Water solubility tests were carried out by a gradual addition of 5 μl distilled water to 1 mg peptoid until a clear solution was obtained. This assay was repeated three times and results were averaged.

Series [2] can be described thus: Circular dichroism (CD) spectra of peptoids in water (temperature and concentration dependence). Type of series: physicochemical. The settings on record: for Aggregation in water from concentration dependence of CD spectra: 40 to 180 μM. How it is done: Circular dichroism (CD) measurements were performed using a J-810-150S circular dichroism spectropolarimeter (Jasco). Spectra were obtained in a 1 mm path-length fused quartz cell. Prior to taking measurements, 5 mM stock oligomer solution was constituted in 100% water. The appropriate dilutions were made immediately before the measurements. Eight scans were taken for each sample at a scan rate of 1 nm/second at 1 nm increments. Data are expressed in terms of per-residue molar ellipticity (degrees*cm^2/dmol) calculated per mole of amide groups present.
(§1) In order to assess whether the dissolved peptoids form aggregates, fluorescence spectra were determined for P18 and P21 (which comprise Ns1npe) dissolved in water. Aggregation of peptoids with Ns1npe groups has been reported to be associated with an excimer band at 392 nm [Fuller et al., Org. Lett. 2013, 15:5118-5121]. In addition, CD spectra of P21 were determined at various concentrations ranging from 40 to 180 μM in water.
Similarly, CD spectra of P2, P5 and P8 (which comprise Nspe rather than Ns1npe as in P18 and P21) were determined in order to assess whether the dissolved peptoids form aggregates in water.

The nature of series [3]: Fluorescence emission spectra in water (excimer band, aggregation). The series is classed as physicochemical. The settings on record: 40 μM. How it is done: as §1
The conditions of series [4]: literature report (Baskin & Maayan 2016); cited from earlier work.
Series [5] can be described thus: Selectivity towards Cu^2+ by UV-visible absorption spectra (metal ion mixture vs Cu^2+-complex). Type of series: binding. The settings on record: water; 1 equivalent peptoid, mixture of Cu^2+, Co^2+, Zn^2+, Fe^2+, Mn^2+ and Ni^2+. How it is done:
UV-visible spectrometry measurements were performed using a Cary™ 60 UV-Vis spectrophotometer (Agilent) with Czerny-Turner monochromator. In a typical UV-visible experiment, 10 μl of a peptoid solution (5 mM) was diluted in 3 ml H2O (to obtain a 17 μM concentration) and the UV-visible spectrum was measured. Afterwards 1 equivalent of Cu^2+ (10 μl, 5 mM) or solution containing mixtures of metal ions (1 equivalent Cu^2+, Co^2+, Zn^2+, Mn^2+, Ni^2+ and Fe^3+, 5 mM, 10 μl) was added and the spectrum was measured again.
In order to evaluate the selectivity of P33 and P34 towards Cu^2+, 1 equivalent of each peptoid in water was added to 1 equivalent of a mixture solution containing the metal ions Cu^2+, Co^2+, Zn^2+, Fe^2+, Mn^2+ and Ni^2+, and UV-visible absorption spectra were recorded and compared to UV-visible absorption of Cu^2+-complexes of the peptoids. It has been previously shown that comparing UV-visible absorption spectra is a highly reliable tool to assess the selectivity of the peptoid chelators.

What is called solubility is the concentration that dissolves in the medium under given conditions. A high value points to a readily soluble substance. In the case of `C[C@@H](c1ccccc1)N(CC(N)=O)C(=O)CN(C(=O)CN(C(=O)CN(C(=O)CN(C(=O)CN(C(=O)CN1CCNCC1)[C@@H](C)c1ccccc1)[C@@H](C)c1ccccc1)[C@@H](C)c1ccccc1)[C@@H](C)c1ccccc1)[C@@H](C)c1ccccc1` [Peptoid P2, (Nspe)6-Npz] ({Acetyl(2-(piperazin-1-yl))}-[Nspe][Nspe][Nspe][Nspe][Nspe][Nspe]-NH2), the solubility is ~900 µM and 1000 µg/mL in series [1]; 1.66 mg/mL (≈ 1.49 mM) in series [1] (pH 4.5); 1.28 mg/mL (≈ 1.15 mM) in series [1] (pH 7.5); under 0.2 mg/mL in series [1] (pH 10.5). In series [2] (0° C. to 90° C.), the “Change of CD spectrum (helical structure) in water with temperature” value is recorded as “does not change significantly”. Also, in series [2], the “Aggregation in water from concentration dependence of CD spectra” value (“Aggregation in water” below) is listed as “no aggregation”.
For the compound `C[C@@H](c1ccccc1)N(CC(N)=O)C(=O)CN(C(=O)CN(C(=O)CN(C(=O)CN(C(=O)CN(C(=O)CN1CCN(C(=O)CN2CCNCC2)CC1)[C@@H](C)c1ccccc1)[C@@H](C)c1ccccc1)[C@@H](C)c1ccccc1)[C@@H](C)c1ccccc1)[C@@H](C)c1ccccc1` [Peptoid P5, (Nspe)6-(Npz)2] ({Acetyl(2-(piperazin-1-yl))}-[X1][Nspe][Nspe][Nspe][Nspe][Nspe][Nspe]-NH2), in series [1], the “Water solubility relative to that of P2” value is “over 50 times” and the concentration in solution (solubility) came to 58 mg/mL (≈ 46.9 mM). Moreover, the “Water solubility relative to that of P2 at pH 10.5” value in series [1] (pH 10.5) stood at 30 times. The “Aggregation in water” value in series [2] was “no aggregation”.
The compound `C[C@@H](c1ccccc1)N(CC(N)=O)C(=O)CN(C(=O)CN(C(=O)CN(C(=O)CN(C(=O)CN(C(=O)CN1CCCN(C(=O)CN2CCCNCC2)CC1)[C@@H](C)c1ccccc1)[C@@H](C)c1ccccc1)[C@@H](C)c1ccccc1)[C@@H](C)c1ccccc1)[C@@H](C)c1ccccc1` [Peptoid P8, (Nspe)6-(Nhpz)2] (X3-[X4][Nspe][Nspe][Nspe][Nspe][Nspe][Nspe]-NH2) registered a solubility in series [1] of 510 mg/mL (≈ 403 mM). The “Aggregation in water” value in series [2] was “no aggregation”.
For `C[C@@H](c1cccc2ccccc12)N(CC(N)=O)C(=O)CN(C(=O)CN(C(=O)CN(C(=O)CN1CCN(C(=O)CN2CCNCC2)CC1)[C@@H](C)c1cccc2ccccc12)[C@@H](C)c1cccc2ccccc12)[C@@H](C)c1cccc2ccccc12` [Peptoid P18, (Ns1npe)4-(Npz)2], the solubility in series [1] was found to be 13.3 mg/mL (≈ 11.9 mM). Also, the “Excimer band near 392 nm (aggregation)” value in series [3] is “no excimer band was observed”.
The compound `C[C@@H](c1cccc2ccccc12)N(CC(N)=O)C(=O)CN(C(=O)CN(C(=O)CN(C(=O)CN1CCN(C(=O)CN2CCN(C(=O)CN3CCNCC3)CC2)CC1)[C@@H](C)c1cccc2ccccc12)[C@@H](C)c1cccc2ccccc12)[C@@H](C)c1cccc2ccccc12` [Peptoid P21, (Ns1npe)4-(Npz)3] had a solubility in series [1] of 176 mg/mL (≈ 142 mM). For the same compound, in series [2], the “Aggregation in water” value is “some concentration-dependent aggregation”. Further, in series [3], the “Excimer band near 392 nm (aggregation)” value was “no excimer band was observed”.
For the compound `CCOC(=O)NN(CC(=O)N(CC(N)=O)[C@H](C)c1ccccc1)C(=O)CN(C(=O)CN(NC(=O)OCC)C(=O)CN(C(=O)CN(NC(=O)OCC)C(=O)CN1CCN(C(=O)CN2CCNCC2)CC1)[C@H](C)c1ccccc1)[C@H](C)c1ccccc1` [Peptoid P30] ({Acetyl(2-(piperazin-1-yl))}-[X1][Gly(Nα-NHCO2Et)][Nrpe][Gly(Nα-NHCO2Et)][Nrpe][Gly(Nα-NHCO2Et)][Nrpe]-NH2), the concentration in solution in series [1] (solubility) was 177 mg/mL (≈ 149 mM).
In series [1], `C[C@H](NCC(=O)N(CC(=O)N(CC(=O)N(CC(=O)N(CCOc1cc(-c2ccccn2)nc(-c2ccccn2)c1)CC(=O)N(CC(N)=O)[C@@H](C)c1ccccc1)[C@@H](C)c1ccccc1)[C@@H](C)c1ccccc1)Cc1ccc2cccc(O)c2n1)c1ccccc1` [Peptoid P32, reference compound] (H-[Nspe][X2][Nspe][Nspe][N(CH2CH2O-4'-Tpy)Gly][Nspe]-NH2; N-terminus assumed) came in with a solubility of under 0.2 mg/mL. In addition, the “Selective chelation of Cu^2+ (reported)” value in series [4] is on record as “selective peptoid chelator for Cu^2+”.
Consider `C[C@@H](c1ccccc1)N(CC(N)=O)C(=O)CN(CCOc1cc(-c2ccccn2)nc(-c2ccccn2)c1)C(=O)CN(C(=O)CN(C(=O)CN(Cc1ccc2cccc(O)c2n1)C(=O)CN(C(=O)CN1CCNCC1)[C@@H](C)c1ccccc1)[C@@H](C)c1ccccc1)[C@@H](C)c1ccccc1` [Peptoid P33, Nspe-Ntrp-(Nspe)2-Nhq-Nspe-Npz] ({Acetyl(2-(piperazin-1-yl))}-[Nspe][X2][Nspe][Nspe][N(CH2CH2O-4'-Tpy)Gly][Nspe]-NH2; N-terminus assumed), for which the solubility in series [1] came to 244 mg/mL (≈ 183 mM). Further, in series [5], the “Selective binding to Cu^2+” value is “does not selectively bind to Cu^2+”.
For `C[C@H](NCC(=O)N(CC(=O)N(CC(=O)N(CC(=O)N(CCOc1cc(-c2ccccn2)nc(-c2ccccn2)c1)CC(=O)N(CC(=O)N1CCN(CC(N)=O)CC1)[C@@H](C)c1ccccc1)[C@@H](C)c1ccccc1)[C@@H](C)c1ccccc1)Cc1ccc2cccc(O)c2n1)c1ccccc1` [Peptoid P34, Npz-Nspe-Ntrp-(Nspe)2-Nhq-Nspe] (H-[Nspe][X2][Nspe][Nspe][N(CH2CH2O-4'-Tpy)Gly][Nspe]-X5; N-terminus assumed) the same measures were 8.3 mg/mL (≈ 6.22 mM) and “selectively binds to Cu^2+”.
